Source: ChEMBL document CHEMBL5523718, “Design, synthesis, molecular modeling, in vitro and in vivo biological evaluation of potent anthranilamide derivatives as dual P-glycoprotein and CYP3A4 inhibitors” (Eur J Med Chem, 2024)
pEC50, pIC50: −log10 of the molar value. ≈ marks a conversion by molar mass, not a printed value.

How the values were obtained:
[1] = Half life in CD-1 mouse at 10 mg/kg, po measured upto 8 hrs by LC-MS/MS analysis; type: ADME, organism-based; conditions: in vivo
[2] = MRT in CD-1 mouse at 10 mg/kg, po measured upto 8 hrs by LC-MS/MS analysis; type: ADME, organism-based; conditions: in vivo
[3] = target: T1, ATP-dependent translocase ABCB1 (Homo sapiens, UniProt P08183); assay: Inhibition of P-gp in human MES-SA/Dx5 cells; type: cell-based
T1 sequence (P08183 whole entry): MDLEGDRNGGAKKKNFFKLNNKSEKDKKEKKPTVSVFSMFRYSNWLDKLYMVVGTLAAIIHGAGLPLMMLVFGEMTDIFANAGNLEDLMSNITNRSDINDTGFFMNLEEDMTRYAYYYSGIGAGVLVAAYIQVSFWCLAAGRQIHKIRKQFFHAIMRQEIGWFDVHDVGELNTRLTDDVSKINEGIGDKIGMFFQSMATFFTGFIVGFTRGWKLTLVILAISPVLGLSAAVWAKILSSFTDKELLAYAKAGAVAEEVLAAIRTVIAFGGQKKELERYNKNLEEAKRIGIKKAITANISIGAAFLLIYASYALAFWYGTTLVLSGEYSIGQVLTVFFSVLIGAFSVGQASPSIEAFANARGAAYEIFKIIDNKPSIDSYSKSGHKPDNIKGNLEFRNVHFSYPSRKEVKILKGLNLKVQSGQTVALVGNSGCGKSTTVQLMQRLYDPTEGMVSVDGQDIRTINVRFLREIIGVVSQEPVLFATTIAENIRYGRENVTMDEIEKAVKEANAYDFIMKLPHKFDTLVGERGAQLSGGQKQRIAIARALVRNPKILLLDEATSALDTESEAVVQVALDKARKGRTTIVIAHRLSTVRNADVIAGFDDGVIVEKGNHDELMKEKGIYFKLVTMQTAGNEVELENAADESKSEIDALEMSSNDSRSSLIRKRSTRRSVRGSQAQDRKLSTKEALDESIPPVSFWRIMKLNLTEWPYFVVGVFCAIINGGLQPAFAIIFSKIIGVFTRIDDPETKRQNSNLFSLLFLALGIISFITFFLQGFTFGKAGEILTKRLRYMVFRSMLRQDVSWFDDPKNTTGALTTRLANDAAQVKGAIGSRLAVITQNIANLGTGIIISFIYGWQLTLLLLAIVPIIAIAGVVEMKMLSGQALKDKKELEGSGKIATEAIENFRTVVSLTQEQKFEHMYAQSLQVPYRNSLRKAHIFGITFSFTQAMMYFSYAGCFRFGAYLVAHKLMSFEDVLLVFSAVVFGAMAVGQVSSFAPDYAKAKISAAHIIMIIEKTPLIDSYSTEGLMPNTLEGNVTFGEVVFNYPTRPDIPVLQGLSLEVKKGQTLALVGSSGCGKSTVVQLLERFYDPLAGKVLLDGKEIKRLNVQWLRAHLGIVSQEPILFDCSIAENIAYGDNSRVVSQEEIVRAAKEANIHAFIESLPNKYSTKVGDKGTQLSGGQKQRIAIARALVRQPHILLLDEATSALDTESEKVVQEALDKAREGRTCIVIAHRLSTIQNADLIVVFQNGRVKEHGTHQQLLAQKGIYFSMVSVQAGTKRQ

[4] = test system: MES-SA/Dx5; assay: Cytotoxicity against human MES-SA/Dx5 cells at 1.28 uM incubated for 3 days by MTT assay relative to control; type: functional; conditions: time 3 day
[5] = Equilibrium solubility of compound in PBS at pH 7.4; type: physicochemical; conditions: PBS
[6] = target: T2, P-gp (ABCB1) (Homo sapiens, UniProt P08183); assay: Inhibition of P-gp in human Caco-2 cells at 10 uM in presence of paclitaxel relative to control; type: cell-based; conditions: Caco-2, probe paclitaxel
T2 sequence (P08183 whole entry): as above

[7] = target: T2, P-gp (ABCB1); assay: Inhibition of P-gp in human Caco-2 cells at 5 uM in presence of paclitaxel relative to control; type: cell-based; conditions: Caco-2, probe paclitaxel
[8] = target: T2, P-gp (ABCB1); assay: Inhibition of P-gp in human Caco-2 cells at 1 uM in presence of paclitaxel relative to control; type: cell-based; conditions: Caco-2, probe paclitaxel
[9] = target: T2, P-gp (ABCB1); assay: Inhibition of P-gp in human Caco-2 cells at 0.1 uM in presence of paclitaxel relative to control; type: cell-based; conditions: Caco-2, probe paclitaxel
[10] = target: T2, P-gp (ABCB1); assay: Inhibition of P-gp in human Caco-2 cells at 0.01 uM in presence of paclitaxel relative to control; type: cell-based; conditions: Caco-2, probe paclitaxel
[11] = target: T1, ATP-dependent translocase ABCB1; assay: Inhibition of P-gp in human Caco-2 cells in presence of paclitaxel; type: cell-based
[12] = Metabolic stability in human liver microsome assessed as half life; type: ADME; conditions: liver microsomes
[13] = Metabolic stability in rat liver microsome assessed as half life; type: ADME; conditions: liver microsomes
[14] = Metabolic stability in mouse liver microsome assessed as half life; type: ADME; conditions: liver microsomes
[15] = Metabolic stability in monkey liver microsome assessed as half life; type: ADME, Macaca mulatta; conditions: rhesus monkey, liver microsomes
[16] = Metabolic stability in human liver microsome assessed as intrinsic clearance; type: ADME; conditions: microsomes
[17] = Metabolic stability in rat liver microsome assessed as intrinsic clearance; type: ADME; conditions: microsomes
[18] = Metabolic stability in mouse liver microsome assessed as intrinsic clearance; type: ADME; conditions: microsomes
[19] = Metabolic stability in monkey liver microsome assessed as intrinsic clearance; type: ADME, Macaca mulatta; conditions: rhesus monkey, microsomes
[20] = target: T1, ATP-dependent translocase ABCB1; assay: Inhibition of P-gp (unknown origin) ATPase activity
[21] = target: T3, Broad substrate specificity ATP-binding cassette transporter ABCG2 (Homo sapiens, UniProt Q9UNQ0); assay: Inhibition of BCRP (unknown origin) ATPase activity
T3 sequence (Q9UNQ0 whole entry): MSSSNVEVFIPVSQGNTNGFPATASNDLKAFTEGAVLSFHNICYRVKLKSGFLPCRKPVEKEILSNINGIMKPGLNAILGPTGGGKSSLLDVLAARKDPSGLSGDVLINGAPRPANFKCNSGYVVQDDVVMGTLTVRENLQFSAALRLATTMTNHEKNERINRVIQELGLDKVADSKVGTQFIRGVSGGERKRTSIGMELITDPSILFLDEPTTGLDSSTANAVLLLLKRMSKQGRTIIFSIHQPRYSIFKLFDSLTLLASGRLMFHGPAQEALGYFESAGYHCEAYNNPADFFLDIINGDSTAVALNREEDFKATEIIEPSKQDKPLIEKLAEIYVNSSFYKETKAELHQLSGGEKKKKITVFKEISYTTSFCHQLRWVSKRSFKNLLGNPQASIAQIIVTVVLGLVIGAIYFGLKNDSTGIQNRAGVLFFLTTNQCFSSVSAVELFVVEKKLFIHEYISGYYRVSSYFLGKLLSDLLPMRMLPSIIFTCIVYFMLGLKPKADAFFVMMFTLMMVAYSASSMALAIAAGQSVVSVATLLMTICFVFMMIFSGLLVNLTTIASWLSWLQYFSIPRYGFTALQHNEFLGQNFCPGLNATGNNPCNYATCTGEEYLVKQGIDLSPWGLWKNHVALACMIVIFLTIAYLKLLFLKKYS

[22] = Inhibition of MRP1 (unknown origin) ATPase activity; parameters: species or system Homo sapiens
[23] = target: ATP-binding cassette sub-family C member 2 (Homo sapiens, UniProt Q92887); assay: Inhibition of MRP2 (unknown origin) ATPase activity
Sequence of ATP-binding cassette sub-family C member 2 (Q92887 whole entry): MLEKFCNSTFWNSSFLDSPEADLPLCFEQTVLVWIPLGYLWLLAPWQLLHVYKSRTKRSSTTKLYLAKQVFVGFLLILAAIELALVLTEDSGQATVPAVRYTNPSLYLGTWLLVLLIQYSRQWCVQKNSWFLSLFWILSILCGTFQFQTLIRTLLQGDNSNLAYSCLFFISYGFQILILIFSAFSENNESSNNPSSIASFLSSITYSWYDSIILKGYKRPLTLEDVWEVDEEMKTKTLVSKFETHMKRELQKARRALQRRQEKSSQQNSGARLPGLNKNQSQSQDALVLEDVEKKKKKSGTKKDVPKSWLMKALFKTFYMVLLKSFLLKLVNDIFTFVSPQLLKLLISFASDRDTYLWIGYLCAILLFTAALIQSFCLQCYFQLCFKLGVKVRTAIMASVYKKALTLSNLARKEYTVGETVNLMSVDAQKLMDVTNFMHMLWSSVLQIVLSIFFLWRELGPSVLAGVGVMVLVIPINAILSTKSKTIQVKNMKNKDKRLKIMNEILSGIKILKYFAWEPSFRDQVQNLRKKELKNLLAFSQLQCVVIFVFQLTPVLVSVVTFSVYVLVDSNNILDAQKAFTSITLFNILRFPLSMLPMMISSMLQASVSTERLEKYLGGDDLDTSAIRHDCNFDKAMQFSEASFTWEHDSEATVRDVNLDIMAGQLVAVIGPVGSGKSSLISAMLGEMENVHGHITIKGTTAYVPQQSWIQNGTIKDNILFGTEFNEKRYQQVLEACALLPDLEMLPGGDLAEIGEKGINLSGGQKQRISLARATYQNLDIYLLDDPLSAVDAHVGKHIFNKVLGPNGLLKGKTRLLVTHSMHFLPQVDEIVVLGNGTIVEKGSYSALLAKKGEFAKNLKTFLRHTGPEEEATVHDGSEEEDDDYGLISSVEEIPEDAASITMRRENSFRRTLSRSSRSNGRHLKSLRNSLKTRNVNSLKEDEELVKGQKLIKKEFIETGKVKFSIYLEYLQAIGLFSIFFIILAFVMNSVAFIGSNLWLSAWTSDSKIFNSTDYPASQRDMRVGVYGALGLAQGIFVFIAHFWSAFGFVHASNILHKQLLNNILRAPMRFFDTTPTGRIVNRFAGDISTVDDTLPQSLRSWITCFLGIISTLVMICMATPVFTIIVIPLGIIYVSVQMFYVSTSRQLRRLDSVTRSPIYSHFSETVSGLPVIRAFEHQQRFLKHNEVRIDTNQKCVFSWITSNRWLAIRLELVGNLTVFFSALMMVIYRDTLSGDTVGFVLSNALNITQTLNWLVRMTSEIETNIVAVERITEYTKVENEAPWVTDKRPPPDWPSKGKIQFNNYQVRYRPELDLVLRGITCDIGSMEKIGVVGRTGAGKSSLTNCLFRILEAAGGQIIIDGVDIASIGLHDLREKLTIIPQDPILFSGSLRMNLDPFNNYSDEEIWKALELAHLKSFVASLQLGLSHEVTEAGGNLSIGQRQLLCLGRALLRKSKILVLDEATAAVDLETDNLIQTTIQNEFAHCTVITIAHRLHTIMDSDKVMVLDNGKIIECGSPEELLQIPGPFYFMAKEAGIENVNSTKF

[24] = Apparent permeability of compound across basolateral to apical side in human Caco-2 cells; type: ADME, cell-based
[25] = Apparent permeability of compound across apical to basolateral side in human Caco-2 cells; type: ADME, cell-based
[26] = Apparent permeability across apical to basolateral side in human Caco-2 cells assessed as drug recovery; type: ADME, cell-based; conditions: read-out: Drug recovery
[27] = Apparent permeability across basolateral to apical side in human Caco-2 cells assessed as drug recovery; type: ADME, cell-based; conditions: read-out: Drug recovery
[28] = Tmax in Sprague-Dawley rat at 20 mg/kg, po measured upto 24 hrs by LC-MS/MS analysis; type: ADME, organism-based; conditions: in vivo
[29] = Cmax in Sprague-Dawley rat at 20 mg/kg, po measured upto 24 hrs by LC-MS/MS analysis; type: ADME, organism-based; conditions: in vivo
[30] = AUC (0 to t) in Sprague-Dawley rat at 20 mg/kg, po measured upto 24 hrs by LC-MS/MS analysis; type: ADME, organism-based; conditions: in vivo
[31] = MRT in Sprague-Dawley rat at 20 mg/kg, po measured upto 24 hrs by LC-MS/MS analysis; type: ADME, organism-based; conditions: in vivo

## COc1cc2c(cc1OC)CN(CCc1ccc(NC(=O)c3cc(OC)c(OC)cc3NC(=O)c3cnc4ccccc4c3)cc1)CC2
[1]
  half-life: 1.11 h
[2]
  MRT: 1.26 h
[3]
  pEC50: 7.46
[4]
  Activity: 5%
[5]
  solubility thermodynamic: 0.44 µM (≈ 0.285 µg/mL)
[6]
  inhibition at 10 µM: 96%
[7]
  inhibition at 5 µM: 96%
[8]
  inhibition at 1 µM: 92%
[9]
  inhibition at 0.1 µM: 77%
[10]
  inhibition at 0.01 µM: 0%
[11]
  pIC50: 7.28
[12]
  half-life: > 1 h
[13]
  half-life: > 1 h
[14]
  half-life: > 1 h
[15]
  half-life: 0.583 h
[16]
  CLH: < 23 µL/min/mg
[17]
  CLH: < 23 µL/min/mg
[18]
  CLH: < 23 µL/min/mg
[19]
  CLH: 39 µL/min/mg
[20]
  pIC50: 7.46
[21]
  pIC50: 6.63
[22]
  pIC50: < 5.00
[23]
  pIC50: < 5.00

## CC(=O)O[C@H]1C(=O)[C@@]2(C)[C@H]([C@H](OC(=O)c3ccccc3)[C@]3(O)C[C@H](OC(=O)[C@H](O)[C@@H](NC(=O)c4ccccc4)c4ccccc4)C(C)=C1C3(C)C)[C@]1(OC(C)=O)CO[C@@H]1C[C@@H]2O [PACLITAXEL]
[24]
  Papp B→A: 17.1 ×10⁻⁶ cm/s
[25]
  Papp A→B: 0.41 ×10⁻⁶ cm/s
[26]
  recovery: 54%
[27]
  recovery: 66%
[28]
  Tmax: 8 h
[29]
  Cmax: 14.9 ng/mL
[30]
  AUCt: 95.9 ng·h/mL
[31]
  MRT: 5.37 h
